# From US20250262201A1, “COMPOUNDS AND METHODS USEFUL FOR STABILIZING PHENYLALANINE HYDROXYLASE MUTATIONS” (Agios Pharmaceuticals, Inc., priority 2022, published 2025)
# Biological target: T1, human PAH with the R408W mutation (Homo sapiens, UniProt P00439, R408W)
# T1 construct: expressed in transfected cells
# T1 sequence (P00439 1-452 R408W): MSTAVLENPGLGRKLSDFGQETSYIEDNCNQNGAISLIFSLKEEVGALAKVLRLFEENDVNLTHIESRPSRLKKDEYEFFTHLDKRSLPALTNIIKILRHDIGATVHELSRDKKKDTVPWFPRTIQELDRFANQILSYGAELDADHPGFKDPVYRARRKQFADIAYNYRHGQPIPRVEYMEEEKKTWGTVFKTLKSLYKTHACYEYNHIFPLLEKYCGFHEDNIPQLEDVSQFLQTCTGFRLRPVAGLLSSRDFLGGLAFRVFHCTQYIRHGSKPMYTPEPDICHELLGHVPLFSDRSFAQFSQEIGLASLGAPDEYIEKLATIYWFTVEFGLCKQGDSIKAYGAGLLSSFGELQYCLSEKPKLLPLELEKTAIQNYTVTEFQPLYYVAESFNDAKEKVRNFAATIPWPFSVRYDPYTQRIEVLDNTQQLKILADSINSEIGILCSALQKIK
# Experiment: Cell Based Phenylalanine Flux Assay
# Details: A375 cells expressing human R408W PAH; 24 hrs compound incubation; 13C-Tyrosine by LC-MS; average where tested multiple times; read-out: AC50
row,SMILES,AC50
1,"CN(C)Cc1ccc2c(C(=O)N3CCc4[nH]cnc4[C@H]3c3cc4ccccc4cn3)cnn2c1 [Example 330, (R)-(6-((dimethylamino)methyl)pyrazolo[1,5-a]pyridin-3-yl)(4-(isoquinolin-3-yl)-6,7-dihydro-1H-imidazo[4,5-c]pyridin-5(4H)-yl)methanone]",< 0.5 µM
2,"CN(C)Cc1ccc2c(C(=O)N3CCc4[nH]cnc4[C@@H]3c3cc4ccccc4cn3)cnn2c1 [Example 331, (S)-(6-((dimethylamino)methyl)pyrazolo[1,5-a]pyridin-3-yl)(4-(isoquinolin-3-yl)-6,7-dihydro-1H-imidazo[4,5-c]pyridin-5(4H)-yl)methanone]",> 5 µM
3,"CC(C)(F)c1ncc(C(=O)N2CCc3[nH]cnc3[C@H]2c2cc3ccccc3cn2)s1 [Example 332, (R)-(2-(2-fluoropropan-2-yl)thiazol-5-yl)(4-(isoquinolin-3-yl)-6,7-dihydro-1H-imidazo[4,5-c]pyridin-5(4H)-yl)methanone]",< 0.5 µM
4,"CC(C)(F)c1ncc(C(=O)N2CCc3[nH]cnc3[C@@H]2c2cc3ccccc3cn2)s1 [Example 333, (S)-(2-(2-fluoropropan-2-yl)thiazol-5-yl)(4-(isoquinolin-3-yl)-6,7-dihydro-1H-imidazo[4,5-c]pyridin-5(4H)-yl)methanone]",1 to 5 µM
5,"O=C(c1nnc(-c2c(F)cccc2F)o1)N1CCc2[nH]cnc2[C@H]1c1cc2ccccc2cn1 [Example 334, (R)-(5-(2,6-difluorophenyl)-1,3,4-oxadiazol-2-yl)(4-(isoquinolin-3-yl)-6,7-dihydro-1H-imidazo[4,5-c]pyridin-5(4H)-yl)methanone]",< 0.5 µM
6,"O=C(c1nnc(-c2c(F)cccc2F)o1)N1CCc2[nH]cnc2[C@@H]1c1cc2ccccc2cn1 [Example 335, (S)-(5-(2,6-difluorophenyl)-1,3,4-oxadiazol-2-yl)(4-(isoquinolin-3-yl)-6,7-dihydro-1H-imidazo[4,5-c]pyridin-5(4H)-yl)methanone]",1 to 5 µM
7,"Fc1ccc(-c2nnc(N3CCc4[nH]cnc4[C@@H]3c3cc4ccccc4cn3)o2)cc1 [Example 336, (S)-2-(4-fluorophenyl)-5-(4-(isoquinolin-3-yl)-6,7-dihydro-1H-imidazo[4,5-c]pyridin-5(4H)-yl)-1,3,4-oxadiazole]",> 5 µM
8,"Fc1ccc(-c2nnc(N3CCc4[nH]cnc4[C@H]3c3cc4ccccc4cn3)o2)cc1 [Example 337, (R)-2-(4-fluorophenyl)-5-(4-(isoquinolin-3-yl)-6,7-dihydro-1H-imidazo[4,5-c]pyridin-5(4H)-yl)-1,3,4-oxadiazole]",< 0.5 µM
9,"CC(C)(F)c1ncc(C(=O)N2CCc3[nH]cnc3[C@@H]2c2cc3ccccc3cn2)o1 [Example 338, (S)-(2-(2-fluoropropan-2-yl)oxazol-5-yl)(4-(isoquinolin-3-yl)-6,7-dihydro-1H-imidazo[4,5-c]pyridin-5(4H)-yl)methanone]",> 5 µM
10,"CC(C)(F)c1ncc(C(=O)N2CCc3[nH]cnc3[C@H]2c2cc3ccccc3cn2)o1 [Example 339, (R)-(2-(2-fluoropropan-2-yl)oxazol-5-yl)(4-(isoquinolin-3-yl)-6,7-dihydro-1H-imidazo[4,5-c]pyridin-5(4H)-yl)methanone]",< 0.5 µM
11,"O=C(c1nnc(-c2ccc(F)cn2)o1)N1CCc2[nH]cnc2[C@H]1c1cc2ccccc2cn1 [Example 340, (R)-(5-(5-fluoropyridin-2-yl)-1,3,4-oxadiazol-2-yl)(4-(isoquinolin-3-yl)-6,7-dihydro-1H-imidazo[4,5-c]pyridin-5(4H)-yl)methanone]",< 0.5 µM
12,"O=C(c1nnc(-c2ccc(F)cn2)o1)N1CCc2[nH]cnc2[C@@H]1c1cc2ccccc2cn1 [Example 341, (S)-(5-(5-fluoropyridin-2-yl)-1,3,4-oxadiazol-2-yl)(4-(isoquinolin-3-yl)-6,7-dihydro-1H-imidazo[4,5-c]pyridin-5(4H)-yl)methanone]",> 5 µM
13,"O=C(c1nnc(-c2ccc(F)cc2)o1)N1CCc2[nH]cnc2[C@H]1c1cc2ccccc2cn1 [Example 342, (R)-(5-(4-fluorophenyl)-1,3,4-oxadiazol-2-yl)(4-(isoquinolin-3-yl)-6,7-dihydro-1H-imidazo[4,5-c]pyridin-5(4H)-yl)methanone]",< 0.5 µM
14,"O=C(c1nnc(-c2ccc(F)cc2)o1)N1CCc2[nH]cnc2[C@@H]1c1cc2ccccc2cn1 [Example 343, (S)-(5-(4-fluorophenyl)-1,3,4-oxadiazol-2-yl)(4-(isoquinolin-3-yl)-6,7-dihydro-1H-imidazo[4,5-c]pyridin-5(4H)-yl)methanone]",> 5 µM
15,"CC(C)(F)c1ccc2c(C(=O)N3CCc4[nH]cnc4[C@H]3c3cc4ccccc4cn3)cnn2c1 [Example 344, (R)-(6-(2-fluoropropan-2-yl)pyrazolo[1,5-a]pyridin-3-yl)(4-(isoquinolin-3-yl)-6,7-dihydro-1H-imidazo[4,5-c]pyridin-5(4H)-yl)methanone]",0.5 to 1 µM
16,"Cc1nnc(CCC(=O)N2CCc3[nH]cnc3[C@H]2c2cc3ccccc3cn2)o1 [Example 345, (R)-1-(4-(isoquinolin-3-yl)-6,7-dihydro-1H-imidazo[4,5-c]pyridin-5(4H)-yl)-3-(5-methyl-1,3,4-oxadiazol-2-yl)propan-1-one]",0.5 to 1 µM
17,"O=C(CCc1nnc(C(F)F)o1)N1CCc2[nH]cnc2[C@H]1c1cc2ccccc2cn1 [Example 346, (R)-3-(5-(difluoromethyl)-1,3,4-oxadiazol-2-yl)-1-(4-(isoquinolin-3-yl)-6,7-dihydro-1H-imidazo[4,5-c]pyridin-5(4H)-yl)propan-1-one]",1 to 5 µM
18,"CC(C)(O)c1nnc(C(=O)N2CCc3[nH]cnc3[C@H]2c2cc3ccccc3cn2)o1 [Example 347, (R)-(5-(2-hydroxypropan-2-yl)-1,3,4-oxadiazol-2-yl)(4-(isoquinolin-3-yl)-6,7-dihydro-1H-imidazo[4,5-c]pyridin-5(4H)-yl)methanone]",0.5 to 1 µM
19,"O=C(c1ocnc1-c1ccccc1)N1CCc2[nH]cnc2[C@H]1c1cc2ccccc2cn1 [Example 348, (R)-(4-(isoquinolin-3-yl)-6,7-dihydro-1H-imidazo[4,5-c]pyridin-5(4H)-yl)(4-phenyloxazol-5-yl)methanone]",< 0.5 µM
20,"O=C(Cc1nncs1)N1CCc2[nH]cnc2[C@H]1c1cc2ccccc2cn1 [Example 349, (R)-1-(4-(isoquinolin-3-yl)-6,7-dihydro-1H-imidazo[4,5-c]pyridin-5(4H)-yl)-2-(1,3,4-thiadiazol-2-yl)ethanone]",< 0.5 µM
21,"O=C(c1nncs1)N1CCc2[nH]cnc2[C@H]1c1cc2ccccc2cn1 [Example 350, (R)-(4-(isoquinolin-3-yl)-6,7-dihydro-1H-imidazo[4,5-c]pyridin-5(4H)-yl)(1,3,4-thiadiazol-2-yl)methanone]",< 0.5 µM
22,"Cc1nnc(CC(=O)N2CCc3[nH]cnc3[C@H]2c2cc3ccccc3cn2)s1 [Example 351, (R)-1-(4-(isoquinolin-3-yl)-6,7-dihydro-1H-imidazo[4,5-c]pyridin-5(4H)-yl)-2-(5-methyl-1,3,4-thiadiazol-2-yl)ethanone]",0.5 to 1 µM
23,"O=C(c1cnn2cc(Br)ccc12)N1CCc2[nH]cnc2[C@H]1c1cc2ccccc2cn1 [Example 352, (R)-(6-bromopyrazolo[1,5-a]pyridin-3-yl)(4-(isoquinolin-3-yl)-6,7-dihydro-1H-imidazo[4,5-c]pyridin-5(4H)-yl)methanone]",< 0.5 µM
24,"O=C(c1ncn2ccccc12)N1CCc2[nH]cnc2[C@H]1c1cc2ccccc2cn1 [Example 353, (R)-imidazo[1,5-a]pyridin-1-yl(4-(isoquinolin-3-yl)-6,7-dihydro-1H-imidazo[4,5-c]pyridin-5(4H)-yl)methanone]",< 0.5 µM
25,"O=C(c1ocnc1-c1ccccn1)N1CCc2[nH]cnc2[C@H]1c1cc2ccccc2cn1 [Example 354, (R)-(4-(isoquinolin-3-yl)-6,7-dihydro-1H-imidazo[4,5-c]pyridin-5(4H)-yl)(4-(pyridin-2-yl)oxazol-5-yl)methanone]",< 0.5 µM
26,"O=C(c1cnn2c(Br)cccc12)N1CCc2[nH]cnc2[C@H]1c1cc2ccccc2cn1 [Example 355, (R)-(7-bromopyrazolo[1,5-a]pyridin-3-yl)(4-(isoquinolin-3-yl)-6,7-dihydro-1H-imidazo[4,5-c]pyridin-5(4H)-yl)methanone]",< 0.5 µM
27,"O=C(c1cnn2ccc(Br)cc12)N1CCc2[nH]cnc2[C@H]1c1cc2ccccc2cn1 [Example 356, (R)-(5-bromopyrazolo[1,5-a]pyridin-3-yl)(4-(isoquinolin-3-yl)-6,7-dihydro-1H-imidazo[4,5-c]pyridin-5(4H)-yl)methanone]",< 0.5 µM
28,"O=C(c1cnn2cccc(F)c12)N1CCc2[nH]cnc2[C@H]1c1cc2ccccc2cn1 [Example 357, (R)-(4-fluoropyrazolo[1,5-a]pyridin-3-yl)(4-(isoquinolin-3-yl)-6,7-dihydro-1H-imidazo[4,5-c]pyridin-5(4H)-yl)methanone]",< 0.5 µM
29,"O=C(c1nsc2ccccc12)N1CCc2[nH]cnc2[C@H]1c1cc2ccccc2cn1 [Example 358, (R)-benzo[d]isothiazol-3-yl(4-(isoquinolin-3-yl)-6,7-dihydro-1H-imidazo[4,5-c]pyridin-5(4H)-yl)methanone]",< 0.5 µM
30,"O=C(c1n[nH]c2ccccc12)N1CCc2[nH]cnc2[C@H]1c1cc2ccccc2cn1 [Example 359, (3a,7a-dihydro-1H-indazol-3-yl)((R)-4-(isoquinolin-3-yl)-6,7-dihydro-1H-imidazo[4,5-c]pyridin-5(4H)-yl)methanone]",< 0.5 µM
